From the supplement of paper PMC8671470
± gives the standard deviation of the averaged measurements.

Key:
Conditions in all cases: 72 h
[1] = tested on: BV-173
In short: (§1)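 Fifteen myeloid leukaemia lines in RPMI 1640 were treated for 72 h at 37 °C and 5% CO2 with five tenfold doses from 1 to 10,000 nM, in duplicate. ATP luminescence was normalised to vehicle and to a positive control at 10 µM, then fitted with a four-parameter log-logistic model. The IC50 came from these fits.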

[2] = tested on: HEL
In short: as §1

[3] = tested on: HL-60
In short: as §1

[4] = tested on: K-562
In short: as §1

[5] = tested on: KCL-22
In short: as §1

[6] = tested on: KG-1
In short: as §1

[7] = tested on: KU-812
In short: as §1

[8] = tested on: LAMA-84
In short: as §1

[9] = tested on: ML-2
In short: as §1

[10] = tested on: MOLM-13
In short: as §1

[11] = tested on: MV4-11
In short: as §1

[12] = tested on: Mono-Mac-6
In short: as §1

[13] = tested on: NOMO-1
In short: as §1

[14] = tested on: SHI-1
In short: as §1

[15] = tested on: THP-1
In short: as §1

[16] = tested on: HL-60; assay: cell viability (% survival relative to DMSO control); higher = less cytotoxic
In short: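 Area under the curve, where listed, was derived from four-parameter log-logistic fits with drc and PharmacoGx. These fits used CellTiter-Glo viability from HL-60 cells in RPMI 1640 with 10% FBS, normalised to DMSO wells and wells holding 10 μM proteasome inhibitor. The full library was rescreened on 384-well plates in duplicate at five tenfold concentrations, 1–10,000 nM, with DMSO or 100 nM of one of three metabolic inhibitors, for 72 h at 37 °C, 5% CO2.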

[17] = tested on: BV-173; assay: cell viability (% survival relative to DMSO control, bortezomib = 0%); higher = less cytotoxic
In short: (§2)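 After 72 h at 37 °C with 5% CO2, cell viability in 384-well plates was measured by CellTiter-Glo luminescence. The plates held compounds pre-printed at 1, 10, 100, 1000 or 10000 nM in duplicate, and cells from 10 AML and 5 CML lines seeded at densities titrated to linear growth. Percent survival is the duplicate mean, normalised to vehicle as 100% and a 10 µM positive control as 0%.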

[18] = tested on: HL-60; assay: as above
In short: as §2

[19] = tested on: K-562; assay: as above
In short: as §2

[20] = tested on: KCL-22; assay: as above
In short: as §2

[21] = tested on: KG-1; assay: as above
In short: as §2

[22] = tested on: KU-812; assay: as above
In short: as §2

[23] = tested on: LAMA-84; assay: as above
In short: as §2

[24] = tested on: ML-2; assay: as above
In short: as §2

[25] = tested on: MOLM-13; assay: as above
In short: as §2

[26] = tested on: MV4-11; assay: as above
In short: as §2

[27] = tested on: NOMO-1; assay: as above
In short: as §2

[28] = tested on: THP-1; assay: as above
In short: as §2

## Cc1coc2c1C(=O)C(=O)c1c-2ccc2c1CCCC2(C)C [Tanshinone IIA]
[1]
  IC50 (cell viability): > 10 µM
[2]
  IC50 (cell viability): > 10 µM
[3]
  IC50 (cell viability): > 10 µM
[4]
  IC50 (cell viability): > 10 µM
[5]
  IC50 (cell viability): > 10 µM
[6]
  IC50 (cell viability): > 10 µM
[7]
  IC50 (cell viability): > 10 µM
[8]
  IC50 (cell viability): > 10 µM
[9]
  IC50 (cell viability): > 10 µM
[10]
  IC50 (cell viability): > 10 µM
[11]
  IC50 (cell viability): > 10 µM
[12]
  IC50 (cell viability): > 10 µM
[13]
  IC50 (cell viability): > 10 µM
[14]
  IC50 (cell viability): > 10 µM
[15]
  IC50 (cell viability): > 10 µM
[16]; 0.001 µM, co-treatment: AZD3965 100 nM
  cell viability: 106 ± 3.5%
[16]; 0.001 µM, co-treatment: DMSO vehicle
  cell viability: 100.1 ± 0.14%
[16]; 0.001 µM, co-treatment: GSK2194069 100 nM
  cell viability: 106.9 ± 0.96%
[16]; 0.001 µM, co-treatment: pictilisib 100 nM
  cell viability: 95.5 ± 8.2%
[16]; 0.01 µM, co-treatment: AZD3965 100 nM
  cell viability: 106 ± 1.5%
[16]; 0.01 µM, co-treatment: DMSO vehicle
  cell viability: 105 ± 4.4%
[16]; 0.01 µM, co-treatment: GSK2194069 100 nM
  cell viability: 110.7 ± 0.96%
[16]; 0.01 µM, co-treatment: pictilisib 100 nM
  cell viability: 111 ± 14%
[16]; 0.1 µM, co-treatment: AZD3965 100 nM
  cell viability: 104 ± 12%
[16]; 0.1 µM, co-treatment: DMSO vehicle
  cell viability: 101 ± 0.13%
[16]; 0.1 µM, co-treatment: GSK2194069 100 nM
  cell viability: 105 ± 5.8%
[16]; 0.1 µM, co-treatment: pictilisib 100 nM
  cell viability: 107 ± 13%
[16]; 1 µM, co-treatment: AZD3965 100 nM
  cell viability: 101 ± 4.3%
[16]; 1 µM, co-treatment: DMSO vehicle
  cell viability: 99.49 ± 0.73%
[16]; 1 µM, co-treatment: GSK2194069 100 nM
  cell viability: 101.4 ± 0.95%
[16]; 1 µM, co-treatment: pictilisib 100 nM
  cell viability: 109 ± 13%
[16]; 10 µM, co-treatment: AZD3965 100 nM
  cell viability: 103 ± 4.8%
[16]; 10 µM, co-treatment: DMSO vehicle
  cell viability: 99 ± 6.2%
[16]; 10 µM, co-treatment: GSK2194069 100 nM
  cell viability: 97.5 ± 4%
[16]; 10 µM, co-treatment: pictilisib 100 nM
  cell viability: 109 ± 13%
[17]; 1 nM
  cell viability: 91.9%
[17]; 10 nM
  cell viability: 103%
[17]; 100 nM
  cell viability: 105%
[17]; 1000 nM
  cell viability: 97.3%
[17]; 10000 nM
  cell viability: 87.7%
[18]; 1 nM
  cell viability: 113%
[18]; 10 nM
  cell viability: 96.6%
[18]; 100 nM
  cell viability: 95.1%
[18]; 1000 nM
  cell viability: 98.7%
[18]; 10000 nM
  cell viability: 79.3%
[19]; 1 nM
  cell viability: 98.1%
[19]; 10 nM
  cell viability: 104%
[19]; 100 nM
  cell viability: 104%
[19]; 1000 nM
  cell viability: 109%
[19]; 10000 nM
  cell viability: 81.3%
[20]; 1 nM
  cell viability: 114%
[20]; 10 nM
  cell viability: 98.8%
[20]; 100 nM
  cell viability: 107%
[20]; 1000 nM
  cell viability: 105%
[20]; 10000 nM
  cell viability: 59.9%
[21]; 1 nM
  cell viability: 106%
[21]; 10 nM
  cell viability: 97.7%
[21]; 100 nM
  cell viability: 94.8%
[21]; 1000 nM
  cell viability: 102%
[21]; 10000 nM
  cell viability: 76.6%
[22]; 1 nM
  cell viability: 89.8%
[22]; 10 nM
  cell viability: 95.2%
[22]; 100 nM
  cell viability: 93.1%
[22]; 1000 nM
  cell viability: 106%
[22]; 10000 nM
  cell viability: 86.2%
[23]; 1 nM
  cell viability: 102%
[23]; 10 nM
  cell viability: 97.7%
[23]; 100 nM
  cell viability: 98.5%
[23]; 1000 nM
  cell viability: 99.6%
[23]; 10000 nM
  cell viability: 102%
[24]; 1 nM
  cell viability: 106%
[24]; 10 nM
  cell viability: 111%
[24]; 100 nM
  cell viability: 103%
[24]; 1000 nM
  cell viability: 101%
[24]; 10000 nM
  cell viability: 77.6%
[25]; 1 nM
  cell viability: 87.8%
[25]; 10 nM
  cell viability: 90.9%
[25]; 100 nM
  cell viability: 106%
[25]; 1000 nM
  cell viability: 101%
[25]; 10000 nM
  cell viability: 89.6%
[26]; 1 nM
  cell viability: 91.9%
[26]; 10 nM
  cell viability: 100%
[26]; 100 nM
  cell viability: 93.1%
[26]; 1000 nM
  cell viability: 101%
[26]; 10000 nM
  cell viability: 80.3%
[27]; 1 nM
  cell viability: 103%
[27]; 10 nM
  cell viability: 104%
[27]; 100 nM
  cell viability: 102%
[27]; 1000 nM
  cell viability: 102%
[27]; 10000 nM
  cell viability: 91.9%
[28]; 1 nM
  cell viability: 98.4%
[28]; 10 nM
  cell viability: 110%
[28]; 100 nM
  cell viability: 104%
[28]; 1000 nM
  cell viability: 92.4%
[28]; 10000 nM
  cell viability: 62.5%
